{"source": "patent US20260151379A1", "about": "“SALT TYPE AND CRYSTAL FORM OF COMPLEMENT FACTOR B INHIBITOR, AND PREPARATION METHOD THEREFOR AND APPLICATION THEREOF” (SHANGHAI MEIYUE BIOTECH DEVELOPMENT CO., LTD., priority 2022, published 2026)", "key": {"Complement factor B": {"target": "Complement factor B (Homo sapiens, UniProt P00751)", "sequence (P00751 26-764)": "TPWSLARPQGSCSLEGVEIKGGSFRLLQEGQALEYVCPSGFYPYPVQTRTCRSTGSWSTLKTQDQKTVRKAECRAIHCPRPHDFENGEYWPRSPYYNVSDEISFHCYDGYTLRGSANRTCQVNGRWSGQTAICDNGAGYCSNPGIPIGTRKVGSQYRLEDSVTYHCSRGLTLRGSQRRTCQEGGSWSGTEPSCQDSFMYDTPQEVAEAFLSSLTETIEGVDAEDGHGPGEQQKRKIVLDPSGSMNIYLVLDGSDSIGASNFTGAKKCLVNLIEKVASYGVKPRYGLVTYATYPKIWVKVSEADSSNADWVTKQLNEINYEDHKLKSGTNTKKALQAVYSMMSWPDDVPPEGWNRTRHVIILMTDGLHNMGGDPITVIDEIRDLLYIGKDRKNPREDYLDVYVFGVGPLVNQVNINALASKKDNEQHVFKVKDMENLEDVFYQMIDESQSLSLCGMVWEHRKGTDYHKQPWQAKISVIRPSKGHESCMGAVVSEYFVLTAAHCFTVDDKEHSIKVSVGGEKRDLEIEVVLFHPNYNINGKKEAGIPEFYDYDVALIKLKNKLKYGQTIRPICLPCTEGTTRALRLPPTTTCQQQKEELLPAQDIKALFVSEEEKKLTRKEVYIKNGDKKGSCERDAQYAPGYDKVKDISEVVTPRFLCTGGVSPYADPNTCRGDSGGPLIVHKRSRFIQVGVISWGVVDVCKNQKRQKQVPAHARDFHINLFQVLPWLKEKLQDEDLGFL", "assay": "Optical surface plasmon resonance (SPR) binding capacity assay", "procedure": "An SPR experiment was carried out at 25° C. In the experiment, a PBS buffer supplemented with 0.05% (v/v) P20 and 5% DMSO was used as a running buffer, and the analytical instrument Biacore 8K of GE Healthcare was used. A CM7 chip (GE Healthcare) was activated with 400 mM EDC and 100 mM NHS at a flow rate of 30 μL/min for 420 s. […] Then the assay chip was treated with 1 M ethanolamine hydrochloride at a flow rate of 10 μL/min for 300 s for chip blocking. The concentration of the test compound was 500 μM, the binding time was 120 s, and the dissociation time was 300 s. Data analysis was performed using a 1:1 binding model (Biacore Insight Evaluation Software, Version 2.0.15.12933)."}, "[1]": {"assay": "Solubility tests of compound of formula I, mixture of crystal forms A and B, and crystal form C at 37° C. (Example 13)", "assay_type": "physicochemical", "conditions": "37° C.; for solubility at 1 h / solubility at 24 h: thermodynamic from solid; for solubility at 1 h: read-out: Solubility at 1 h; for solubility at 24 h: read-out: Solubility at 24 h", "procedure": "An appropriate amount of a test sample was weighed out and added to a vial; 3 mL of a medium (water, SGF, FaSSIF, FeSSIF, or the like) was added; the mixture was stirred at 37° C.; […]; centrifugation was performed at 12000 rpm for 10 min; the supernatant was diluted with 50% aqueous acetonitrile solution to an appropriate multiple; and the concentration of the supernatant was determined.\nControl and linearity: 10 mg of the compound of formula I was weighed out and added to a 50 mL volumetric flask, 50% aqueous acetonitrile solution was added for dissolution, and the mixture was diluted to volume. Two parts were prepared in parallel. The control was taken and diluted with 50% aqueous acetonitrile solution to 100 μg/mL, 50 μg/mL, and 10 μg/mL, 5 μL of the sample was injected, and a standard curve was plotted."}, "[2]": {"tested_on": "Streptococcus-induced rheumatoid arthritis", "assay": "Streptococcus-induced rheumatoid arthritis (RA) model in rats", "assay_type": "in vivo", "conditions": "female Lewis rats, 15 mpk intragastric daily for 25 days", "procedure": "In the experiment, 6- to 9-week-old female Lewis rats (Beijing Vital River) were used. Each group consisted of 6 rats, and they were given the cell wall peptidoglycan complexes of Streptococcus and several other species of bacteria by intraperitoneal administration (2-3 mg per rat) on D1, and were given the control compound (15 mpk) and the compound of formula I (15 mpk) by intragastric administration daily for 25 consecutive days. The arthritis in rats was scored in different phases. The scoring criteria are as follows: […] The scoring criteria are as follows: 0 points, no redness and swelling; 1 point, 1-2 red and swollen interphalangeal joints; 2 points, 3-4 red and swollen interphalangeal joints; 3 points, more than 4 red and swollen interphalangeal joints; 4 points, severe redness and swelling in toes or fingers to ankle joints or wrist joints."}, "[3]": {"target": "T1, complement factor B in human serum (Homo sapiens, UniProt P00751)", "T1 construct": "from tissue; host or cells: normal human serum (NHS)", "T1 sequence (P00751 26-764)": "as above", "assay": "Complement hemolytic activity assay (rabbit erythrocytes, normal human serum)", "assay_type": "cell-based", "conditions": "versus control compound", "procedure": "Prior to the experiment, the optimal concentration of normal human serum (NHS) required to achieve 100% lysis of rabbit erythrocytes (REs) was obtained by titration testing. […] A GVB0 buffer containing 10 mM Mg-EGTA and containing NHS and RE but no test compound was used as a positive control group (100% lysis). A GVB0 buffer containing 10 mM Mg-EGTA and containing inactivated NHS (heated at 56° C. for 30 min or at 65° C. for 5 min) and RE but no test compound was used as a negative control group (0% lysis). […] Absorbance at 415 nm (A415) was measured using a microplate reader (Molecular Devices, SpectraMax i3X). IC50 values were calculated from percent hemolysis as a function of test compound concentration by non-linear regression."}, "[4]": {"assay": "Liver microsomal stability experiment (monkey)", "assay_type": "in vitro ADME, cynomolgus monkey", "conditions": "monkey liver microsomes", "procedure": "A 0.1 M solution of dipotassium phosphate in distilled water (containing 1 mM ethylenediaminetetraacetic acid) was taken. Then the pH was adjusted to 7.4 with a 0.1 M solution of potassium dihydrogen phosphate in distilled water (containing 1 mM ethylenediaminetetraacetic acid).\n• Rat: SD Rat Liver Microsomes, Cat. No.: LM-DS-02M, RILD Research Institute for Liver Diseases (Shanghai) Co. Ltd. • Monkey: Cynomolgus Monkey Liver Microsomes, Cat. No.: LM-SXH-02M, RILD Research Institute for Liver Diseases (Shanghai) Co. Ltd. • Human: Pooled Human Liver Microsomes (Mongolian), Cat. No.: LM-R-02M, RILD Research Institute for Liver Diseases (Shanghai) Co. Ltd.\nA 10 mM solution of each of the control compound and test compounds was prepared in DMSO. Then 10 μL of the solution was added to 190 μL of acetonitrile to form a 0.5 mM stock solution. 1.5 μL of the 0.5 mM stock solution was measured out, and […] of 20 mg/mL liver microsomes and 479.75 μL of the buffer were added. (The actual preparation amount can be adjusted according to use).\n10 mg/mL of reduced coenzyme II (NADPH) was prepared in the buffer. A 96-well plate was placed on ice. Wells corresponding to different time points (0, 10, 30, 60 and 90 min, Non-NADPH) were set for each compound. […] The mixture was analyzed on an AB SCIEX ExionLC-Triple Quad 5500 high-performance liquid chromatograph-mass spectrometer. […]"}}, "note": "Where two headings read alike, the source gives them in different places."}
{"smiles": "COc1cc(C)c2[nH]ccc2c1CN1CC[C@H](OCC2CC2)C[C@H]1c1ccc(C(=O)O)cc1", "note": "[Compound of formula I]", "values": [{"measurement": "Rmax (RU)", "setting": "Complement factor B; test compound 500 μM, 25° C., 1:1 binding model", "value": 274.2, "unit": "RU"}, {"measurement": "Binding capacity to the target protein (in words)", "setting": "Complement factor B; versus control compound", "value": "significantly superior to that of the control compound"}, {"measurement": "Final pH", "setting": "[1]; FaSSIF", "value": 6.44}, {"measurement": "Final pH", "setting": "[1]; FessIF", "value": 5.03}, {"measurement": "Final pH", "setting": "[1]; SGF", "value": 1.74}, {"measurement": "Final pH", "setting": "[1]; Water", "value": 8.73}, {"measurement": "solubility at 1 h", "setting": "[1]; simulated gastric fluid, SGF", "value": 5510, "unit": "µg/mL"}, {"measurement": "solubility at 24 h", "setting": "[1]; simulated gastric fluid, SGF", "value": 5480, "unit": "µg/mL"}, {"measurement": "solubility at 1 h", "setting": "[1]; FassIF", "value": 220, "unit": "µg/mL"}, {"measurement": "solubility at 24 h", "setting": "[1]; FassIF", "value": 190, "unit": "µg/mL"}, {"measurement": "solubility at 1 h", "setting": "[1]; FessIF", "value": 370, "unit": "µg/mL"}, {"measurement": "solubility at 24 h", "setting": "[1]; FessIF", "value": 350, "unit": "µg/mL"}, {"measurement": "solubility at 1 h", "setting": "[1]; Water", "value": 370, "unit": "µg/mL"}, {"measurement": "solubility at 24 h", "setting": "[1]; Water", "value": 310, "unit": "µg/mL"}, {"measurement": "Arthritis score (in words, FIG. 23)", "setting": "[2]", "value": "can improve the arthritis score"}, {"measurement": "Effect on arthritis score versus control compound (in words)", "setting": "[2]", "value": "significantly better effect than that of the control compound"}, {"measurement": "Inhibitory activity against complement factor B in human serum (in words)", "setting": "[3]", "value": "significantly better inhibitory activity against complement factor B in human serum than that of the control compound"}, {"measurement": "MMS (monkey) Remaining (T = 90 min)", "setting": "[4]", "value": 93.32, "unit": "%"}]}
